The source of these data is PubChem BioAssay AID434956 (The Scripps Research Institute Molecular Screening Center, 2010).

Calls of active or inactive are those of the source. No rule for the calls is given here.

The test system of the test is IEC-6 cytotoxicity, ATP luminescence. In words: IEC-6 epithelial cell viability loss – luminescence, dose response, round 1, cytotoxicity control for KLF5 inhibitor project, late-stage follow-up (AID 434956).
One may read the IC50 as the concentration that inhibits the measured activity by half. Turning to `CC(C)(C)c1ccc(-c2noc(CCC(=O)Nc3ccccc3)n2)cc1`, the IC50 is > 39.8 µM (inactive). The value for `CC(=O)c1sc(NC(=O)c2ccc3ncsc3c2)nc1-c1ccccc1` was > 39.8 µM (inactive); that for `CN(C)C(=O)c1ccc2nc(Nc3nc4ccc(F)cc4s3)sc2c1` was 15.7 µM (inactive); that for `COc1ccc2nc(Nc3nc4ccc(F)cc4s3)sc2c1` was > 39.8 µM (inactive). The value for `CC(C)C(=O)Nc1ccc2nn(-c3ccc(Cl)cc3)nc2c1` was > 39.8 µM (inactive); that for `O=C(Nc1cc2nn(-c3ccccc3)nc2cc1Cl)C1CC1` was > 39.8 µM (inactive); that for `CS(=O)(=O)c1ccc2nc(Nc3nc4ccc(F)cc4s3)sc2c1` was 19.1 µM (inactive). The value for `COc1ccc(-n2nc3ccc(NC(=O)C(C)(C)C)cc3n2)cc1` was > 39.8 µM (inactive). Regarding `CC(C)(C)C(=O)Nc1ccc2nn(-c3ccccc3)nc2c1`, the IC50 was > 39.8 µM (inactive).

With `CC(C)(C)c1ccc(-c2noc(CCC(=O)Nc3ccncc3)n2)cc1`, the IC50 was 25.6 µM (inactive).

On to `CC(C)(C)c1ccc(-c2noc(CCCC(=O)Nc3ccccc3Cl)n2)cc1`, for which the IC50 is > 39.8 µM (inactive). The value for `CC(C)(C)C(=O)Nc1ccc2nn(-c3ccc(F)cc3)nc2c1` was > 39.8 µM (inactive); that for `CC(=O)c1sc(NC(=O)c2ccc3ncsc3c2)nc1C` was > 39.8 µM (inactive).

Consider `Cc1ccc(-n2nc3cc(Cl)c(NC(=O)c4cccnc4)cc3n2)cc1`, for which the IC50 is 17.8 µM (inactive). To `CC(NC(=O)c1ccccc1)c1nc(-c2ccc(C(C)(C)C)cc2)no1` (configuration not stated) belongs 41.4 µM (inactive).

Consider `CC(C)(C)c1ccc(-c2noc(CCC(=O)Nc3ccc(N4CCOCC4)nc3)n2)cc1`, for which the IC50 is > 39.8 µM (inactive). The value for `CC(C)(C)c1ccc(-c2noc(CCC(=O)Nc3ccccn3)n2)cc1` was > 39.8 µM (inactive); that for `CCNC(=O)c1ccc2nc(Nc3nc4ccc(F)cc4s3)sc2c1` was 14.7 µM (inactive).

With `CC(=O)Nc1ccc2nc(Nc3nc4ccc(F)cc4s3)sc2c1`, the IC50 is 14.7 µM (inactive). Take `Cc1nc(NC(=O)c2ccc3ncsc3c2)sc1C(=O)N(C)C`: the IC50 is > 39.8 µM (inactive). The value for `CC(C)(C)c1ccc(-c2coc(CCC(=O)Nc3ccccn3)n2)cc1` was > 39.8 µM (inactive). The value for `COc1ccc(-n2nc3cc(C)c(NC(=O)C(C)C)cc3n2)cc1` was > 39.8 µM (inactive); that for `O=C(Cc1ccccc1)Nc1cc2nn(-c3ccccc3)nc2cc1Cl` was > 39.8 µM (inactive). To `CCNC(=O)c1sc(NC(=O)c2ccc3ncsc3c2)nc1C` belongs > 39.8 µM (inactive).

On to `O=C(COc1ccccc1)Nc1ccc2nn(-c3cccc(Cl)c3)nc2c1`, for which the IC50 was > 39.8 µM (inactive).

As for `Cc1cccc(NC(=O)CCc2nc(-c3ccc(C(C)(C)C)cc3)no2)c1`, the IC50 is > 39.8 µM (inactive). As to `Nc1cc2nn(-c3ccccc3)nc2cc1Cl`, the IC50 is > 39.8 µM (inactive). The value for `Cc1ccc(-n2nc3ccc(NC(=O)COc4ccc(C)c(C)c4)cc3n2)cc1` was > 39.8 µM (inactive); that for `CC(C)c1ccc2nc(Nc3nc4ccc(F)cc4s3)sc2c1` was > 39.8 µM (inactive). The value for `COc1ccc(-n2nc3ccc(NC(=O)C4CCN(S(=O)(=O)c5ccc(Cl)cc5)CC4)cc3n2)cc1` was 31.2 µM (inactive); that for `CCOc1ccc2nc(Nc3nc4ccc(F)cc4s3)sc2c1` was > 39.8 µM (inactive); that for `CCOc1ccc(NC(=O)CCc2nc(-c3ccc(C(C)(C)C)cc3)no2)cc1` was > 39.8 µM (inactive). In the case of `CC(C)(C)c1ccc(-c2noc(CCc3nc4ccccc4[nH]3)n2)cc1`, the IC50 was 31.8 µM (inactive).

Consider `CC1(C)CC(=O)c2sc(NC(=O)c3ccc4ncsc4c3)nc2C1`, for which the IC50 was > 39.8 µM (inactive). To `O=C(Nc1cc2nn(-c3ccccc3)nc2cc1Cl)C1COc2ccccc2C1` (configuration not stated) belongs > 39.8 µM (inactive); to `Cc1ccc(OCC(=O)Nc2ccc3nn(-c4cccc(C(F)(F)F)c4)nc3c2)cc1C`, > 39.8 µM (inactive); to `CC(C)(C)c1ccc(-c2noc(CCC(=O)NCc3ccccc3)n2)cc1`, 24.1 µM (inactive).
